Calls of active or inactive are those of the source.
Columns and labels:
HEK293 [1] = test: HEK293T cell viability loss, resazurin readout – resazurin fluorescence, cytotoxicity control for NF-kB activator project, SAR follow-up (AID 493251); assay type: functional, cell-based; settings: Homo sapiens
Jurkat [2] = test: SAR Analysis of small molecule inhibitors of T-cell specific antigen receptor-induced NF-kB activation in a Jurkat cell line using a luminescence assay. [Related pubchem assays (depositor defined):AID435003, AID435012, AID465]; assay type: functional, cell-based; settings: Homo sapiens
HEK293 [3] = test: SAR Analysis of small molecule inhibitors of T-cell specific antigen receptor-induced NF-kB activation in a HEK-293T cell line using a luminescence assay. [Related pubchem assays (depositor defined):AID435003, AID435012, AID489026]; assay type: functional, cell-based; settings: Homo sapiens
Candida albicans [4] = test: Candida growth inhibition combined with fluconazole – CaCi-2 strain, Alamar Blue, dry powder, set 3, dose response (AID 488907); assay type: functional, organism-based
[5] = decrease of insulin promoter-GFP reporter – imaging, high-content screening, mouse beta cells (AID 1628); assay type: functional; settings: MIN6
[6] = MIN6 cell viability loss – mouse insulinoma, cytotoxicity control, dose response (AID 2122); assay type: functional;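 also: confirmatory high-throughput counterscreen run to flag cytotoxic compounds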
[7] = biological target: Delta-type opioid receptor (Homo sapiens, UniProt P41143); test: Counterscreen for agonists of heterodimerization of the mu 1 (OPRM1) and delta 1 (OPRD1) opioid receptors: Luminescence-based cell-based high throughput dose response assay to identify agonists of OPRD1 homodimerization. [Related pubchem assays (depositor defined):AID504326, AID504355, AID504692, AID504904, AID504905]; assay type: functional
Mu-type opioid receptor = Mu-type opioid receptor (Homo sapiens, UniProt P35372); test: Counterscreen for agonists of heterodimerization of the mu 1 (OPRM1) and delta 1 (OPRD1) opioid receptors: Luminescence-based cell-based high throughput dose response assay to identify agonists of OPRM1 homodimerization.; assay type: functional;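 also: U2OS cells expressing OPRM1 and beta-arrestin as split beta-galactosidase partners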
[8] = biological target: 5-hydroxytryptamine receptor 5A (Homo sapiens, UniProt P47898); test: Counterscreen for agonists of OPRM1-OPRD1 heterodimerization: luminescence-based cell-based high throughput dose response assay to identify agonists of 5-hydroxytryptamine (serotonin) 5A receptor (HTR5A). [Related pubchem assays (depositor defined):AID504326, AID504355, AID504692, AID504904, AID504905]; assay type: functional
[9] = Trypanosoma cruzi growth suppression in host cells – NIH3T3 host cells, beta-gal luminescence, confirmation (AID 2044); assay type: functional, cell-based;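 also: intracellular parasites grown in NIH/3T3 mouse fibroblasts as host cells; luminescent beta-galactosidase reporter signal from transgenic T. cruzi replicating inside host cells; inhibitors lower the luminescence signal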
[10] = NIH3T3 cell viability loss – ATP luminescence, mouse fibroblasts, counter-screen, dose response (AID 2010); assay type: functional, cell-based;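 also: cells exposed to compound for about 90 hours before reading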
Candida albicans [11] = test: fluconazole-resistant Candida strain growth inhibitors – CaCi-8 strain, dry powder, set 4, dose response (AID 488950); assay type: functional, organism-based
Candida albicans [12] = test: C. albicans growth inhibition with fluconazole – CaCi-2 strain, Alamar Blue, dry powder, set 4, dose response (AID 488943); assay type: functional, organism-based
Candida albicans [13] = test: antifungal activity against resistant Candida strain – CaCi-8, fluconazole, Alamar Blue, dry powder, dose response (AID 488807); assay type: functional, organism-based
NIH3T3 = test: mammalian cell viability counter-check – Alamar Blue, fluconazole, dry powder, cytotoxicity control for antifungal drug resistance project, dose response (AID 488809); assay type: functional, cell-based; settings: Mus musculus
Jurkat [14] = test: SAR Analysis of small molecule inhibitors of T-cell specific antigen receptor-induced NF-kB activation in a Jurkat cell line using a luminescence assay - Set 2. [Related pubchem assays (depositor defined):AID435003, AID435012, AID465]; assay type: functional, cell-based; settings: Homo sapiens
HEK293 [15] = test: SAR Analysis of small molecule inhibitors of T-cell specific antigen receptor-induced NF-kB activation in a HEK-293T cell line using a luminescence assay - Set 2. [Related pubchem assays (depositor defined):AID435003, AID435012, AID489026]; assay type: functional, cell-based; settings: Homo sapiens
DNA topoisomerase = DNA topoisomerase (Yersinia pestis, UniProt A0A2S9PM60); test: Yersinia topoisomerase I cleavage product accumulation – biochemical, cherry-pick, dose response (AID 588525)
[16] = biological target: T1, Mannose-6-phosphate isomerase (Homo sapiens, UniProt P34949); test: MPI enzyme activity inhibition – biochemical, fluorescence intensity, coupled assay, primary screen (AID 1209)
T1 sequence (P34949 whole entry): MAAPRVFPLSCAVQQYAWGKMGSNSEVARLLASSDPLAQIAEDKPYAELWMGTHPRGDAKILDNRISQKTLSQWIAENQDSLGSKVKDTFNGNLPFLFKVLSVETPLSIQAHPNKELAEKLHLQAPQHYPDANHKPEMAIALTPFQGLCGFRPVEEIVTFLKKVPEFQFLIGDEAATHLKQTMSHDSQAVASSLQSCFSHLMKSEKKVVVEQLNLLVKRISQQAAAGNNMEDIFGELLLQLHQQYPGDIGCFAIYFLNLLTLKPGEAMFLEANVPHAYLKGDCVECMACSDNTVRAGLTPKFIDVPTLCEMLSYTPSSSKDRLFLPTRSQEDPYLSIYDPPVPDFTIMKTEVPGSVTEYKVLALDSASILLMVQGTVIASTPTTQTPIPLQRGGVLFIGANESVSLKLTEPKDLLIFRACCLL

[17] = biological target: T1, Mannose-6-phosphate isomerase; test: phosphomannose isomerase inhibition – biochemical, fluorescence intensity, confirmation (AID 1535)
[18] = biological target: DNA dC->dU-editing enzyme APOBEC-3A (Homo sapiens, UniProt P31941); test: A3A deaminase inhibition for selectivity – biochemical, dose response (AID 504722); assay type: functional
Phosphomannomutase 2 = Phosphomannomutase 2 (Homo sapiens, UniProt O15305); test: Counter screen SAR assay for PMM2 inhibitors via a fluorescence intensity assay. [Related pubchem assays (depositor defined):AID1545, AID1574]
[19] = biological target: DNA dC->dU-editing enzyme APOBEC-3G (Homo sapiens, UniProt Q9HC16); test: Dose Response confirmation of small molecule APOBEC3G DNA Deaminase Inhibitors via a fluorescence-based single-stranded DNA deaminase assay. [Related pubchem assays (depositor defined):AID493012, AID493028]; assay type: functional
Sequence of DNA dC->dU-editing enzyme APOBEC-3G (Q9HC16 whole entry): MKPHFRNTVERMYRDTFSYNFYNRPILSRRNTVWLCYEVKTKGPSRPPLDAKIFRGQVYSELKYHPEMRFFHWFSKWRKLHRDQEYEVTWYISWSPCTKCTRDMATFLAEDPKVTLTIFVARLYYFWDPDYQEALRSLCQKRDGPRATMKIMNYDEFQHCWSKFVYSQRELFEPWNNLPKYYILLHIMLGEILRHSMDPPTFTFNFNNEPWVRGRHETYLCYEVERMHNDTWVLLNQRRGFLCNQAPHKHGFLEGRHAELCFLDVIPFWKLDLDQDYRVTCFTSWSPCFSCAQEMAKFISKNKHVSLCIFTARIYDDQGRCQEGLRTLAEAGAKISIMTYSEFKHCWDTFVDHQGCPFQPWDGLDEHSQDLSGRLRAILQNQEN

Sequence of DNA topoisomerase (A0A2S9PM60 whole entry): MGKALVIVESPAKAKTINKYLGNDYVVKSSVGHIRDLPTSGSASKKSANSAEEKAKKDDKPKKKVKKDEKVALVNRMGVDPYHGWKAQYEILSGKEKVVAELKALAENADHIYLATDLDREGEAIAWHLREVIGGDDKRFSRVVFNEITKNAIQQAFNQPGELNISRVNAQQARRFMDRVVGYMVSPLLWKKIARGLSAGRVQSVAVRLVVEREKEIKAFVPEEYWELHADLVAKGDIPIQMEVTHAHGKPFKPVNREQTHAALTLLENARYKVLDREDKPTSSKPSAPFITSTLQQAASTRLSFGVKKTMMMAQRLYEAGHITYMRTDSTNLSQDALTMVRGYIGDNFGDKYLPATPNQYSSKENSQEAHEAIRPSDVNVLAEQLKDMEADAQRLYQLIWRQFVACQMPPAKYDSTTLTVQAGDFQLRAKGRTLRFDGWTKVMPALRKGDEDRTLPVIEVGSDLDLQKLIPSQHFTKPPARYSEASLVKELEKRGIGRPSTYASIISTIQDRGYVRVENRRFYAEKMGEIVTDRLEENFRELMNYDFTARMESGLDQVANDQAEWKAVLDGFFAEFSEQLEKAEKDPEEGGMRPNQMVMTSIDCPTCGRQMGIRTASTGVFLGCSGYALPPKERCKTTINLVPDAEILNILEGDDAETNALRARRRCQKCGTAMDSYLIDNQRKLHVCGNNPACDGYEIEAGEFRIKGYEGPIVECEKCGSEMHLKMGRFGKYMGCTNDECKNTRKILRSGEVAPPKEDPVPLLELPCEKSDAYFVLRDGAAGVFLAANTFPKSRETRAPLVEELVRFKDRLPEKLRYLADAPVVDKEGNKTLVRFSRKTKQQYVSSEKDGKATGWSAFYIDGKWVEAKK
Sequence of Mu-type opioid receptor (P35372 whole entry): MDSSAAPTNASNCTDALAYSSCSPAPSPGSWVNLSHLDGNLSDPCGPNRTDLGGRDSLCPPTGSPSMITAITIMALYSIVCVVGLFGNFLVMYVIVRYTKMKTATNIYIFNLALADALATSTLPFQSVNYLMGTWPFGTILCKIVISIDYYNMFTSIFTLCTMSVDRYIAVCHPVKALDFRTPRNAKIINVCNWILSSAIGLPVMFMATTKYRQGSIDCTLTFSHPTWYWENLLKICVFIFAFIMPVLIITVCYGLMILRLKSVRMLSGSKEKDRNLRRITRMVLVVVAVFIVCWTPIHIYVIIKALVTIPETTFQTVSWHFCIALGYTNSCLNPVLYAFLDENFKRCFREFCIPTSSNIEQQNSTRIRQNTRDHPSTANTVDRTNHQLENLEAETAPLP
Sequence of 5-hydroxytryptamine receptor 5A (P47898 whole entry): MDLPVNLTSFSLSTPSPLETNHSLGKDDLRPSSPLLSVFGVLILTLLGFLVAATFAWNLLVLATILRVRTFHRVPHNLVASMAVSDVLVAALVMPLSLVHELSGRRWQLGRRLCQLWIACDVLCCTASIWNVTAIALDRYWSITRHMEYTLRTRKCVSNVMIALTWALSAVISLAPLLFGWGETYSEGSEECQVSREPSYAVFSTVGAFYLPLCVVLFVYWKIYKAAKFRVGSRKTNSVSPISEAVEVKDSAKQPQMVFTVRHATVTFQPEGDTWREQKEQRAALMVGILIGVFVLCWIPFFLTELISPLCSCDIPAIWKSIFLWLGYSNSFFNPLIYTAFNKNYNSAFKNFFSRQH
Sequence of Delta-type opioid receptor (P41143 whole entry): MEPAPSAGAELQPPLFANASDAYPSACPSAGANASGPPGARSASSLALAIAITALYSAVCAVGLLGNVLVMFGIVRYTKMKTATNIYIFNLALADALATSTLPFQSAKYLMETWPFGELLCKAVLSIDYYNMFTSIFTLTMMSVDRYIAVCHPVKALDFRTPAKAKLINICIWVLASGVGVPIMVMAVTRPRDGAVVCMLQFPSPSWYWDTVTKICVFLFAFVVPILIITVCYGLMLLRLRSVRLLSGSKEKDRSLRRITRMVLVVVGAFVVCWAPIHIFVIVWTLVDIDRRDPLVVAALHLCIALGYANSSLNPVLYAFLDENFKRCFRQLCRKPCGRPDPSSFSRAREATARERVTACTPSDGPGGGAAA
Sequence of Phosphomannomutase 2 (O15305 whole entry): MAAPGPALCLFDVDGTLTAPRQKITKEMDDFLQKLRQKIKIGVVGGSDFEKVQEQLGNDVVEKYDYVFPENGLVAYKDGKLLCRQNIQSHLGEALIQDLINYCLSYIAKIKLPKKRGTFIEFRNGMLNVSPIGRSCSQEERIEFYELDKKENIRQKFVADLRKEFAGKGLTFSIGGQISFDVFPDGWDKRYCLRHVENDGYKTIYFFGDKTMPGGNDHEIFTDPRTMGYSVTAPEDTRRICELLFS
Sequence of DNA dC->dU-editing enzyme APOBEC-3A (P31941 whole entry): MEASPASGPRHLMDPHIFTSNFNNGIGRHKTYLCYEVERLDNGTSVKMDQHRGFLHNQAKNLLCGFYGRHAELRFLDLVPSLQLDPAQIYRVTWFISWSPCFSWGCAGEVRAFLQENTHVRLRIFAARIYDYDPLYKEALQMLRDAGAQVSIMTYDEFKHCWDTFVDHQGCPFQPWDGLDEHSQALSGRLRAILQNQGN

## COc1cccc(C(=O)Nc2ccc3[nH]c(-c4cccc(OC)c4)cc(=O)c3c2)c1
HEK293 [1]
  IC50: 42.2 µM (inactive)
Jurkat [2]
  IC50: > 79 µM (inactive)
HEK293 [3]
  IC50: > 79 µM (inactive)

## CC(C)C(=O)N1CCN(c2ccccn2)CC1
Candida albicans [4]
  AC50: 0.961 µM (active)

## COc1ccc(OCC(O)Cn2c(=N)n(CCN3CCCCC3)c3ccccc32)cc1 (centres undefined)
[5]
  IC50: 2.41 µM (active)
[6]
  IC50: 4.23 µM (active)

## Cc1ccc(CSCC(=O)N/N=C/c2sccc2C)cc1
[7]
  EC50: > 92.5 µM (inactive)
Mu-type opioid receptor
  EC50: 42.8 µM (inactive)
[8]
  EC50: > 92.5 µM (inactive)

## O=C(Nc1ccc(C(F)(F)F)cc1)N1CCN(c2ccnc3cc(Cl)ccc23)CC1
[9]
  EC50: 3.22 µM (active)
[10]
  EC50: > 60 µM (not active)
Candida albicans [11]
  AC50: 9.05 µM (active)
Candida albicans [12]
  AC50: 4.73 µM (active)
Candida albicans [13]
  AC50: 0.404 µM (active)
NIH3T3
  AC50: 7.27 µM (active)

## O=C(Nc1cccc2ncccc12)c1ccc([N+](=O)[O-])o1
HEK293 [1]
  IC50: 69.4 µM (inactive)
Jurkat [14]
  IC50: 21.8 µM (inactive)
HEK293 [15]
  IC50: 23.4 µM (inactive)

## Cc1cc(C(=O)COC(=O)Cc2nnc(O)c3ccccc23)c(C)n1-c1cccc(C(F)(F)F)c1
DNA topoisomerase
  AC50: 11.4 µM (active)

## S=c1[nH]nc(C2COc3ccccc3O2)[nH]1 (centres undefined)
[16]
  IC50: 7.29 µM (active)
[17]
  IC50: 3.89 µM (active)
[18]
  IC50: > 100 µM (inactive)
Phosphomannomutase 2
  IC50: > 100 µM (inactive)
[19]
  IC50: 4.34 µM (active)
